Legend:
hair cycle [1] = type: in vivo; conditions: mice shaved at day 50 (Telogen); for pigmentation in response to treatment: topical every other day for 2-3 weeks
Procedure: (§1) FIG. 1A: Mice were shaved at day 50 (Telogen) and topically treated with Phenformin (5 uM) every other day for 2-3 weeks. […] FIG. 1B: Quantification of changes to the hair cycle in treatment and control. Quantification performed across 13 vehicle and 9 Phenformin treated male mice. FIG. 1C: Changes to the thickness of the epidermis, dermis and hypodermis were assessed microscopically and quantified. […] Scale bars for D indicate 25 micrometers.
(§2) FIG. 3A: Mice were shaved at day 50 (Telogen) and topically treated with antimycin A or Rotenone every other day for 2-3 weeks. […] FIG. 3B: Quantification of changes to the hair cycle in treatment and control. Quantification was performed with 13 vehicle treated, 11 Rotenone treated, and 9 Antimycin A treated male animals. FIG. 3C: Changes to the thickness of the epidermis, dermis and hypodermis were assessed microscopically and quantified. FIG. 3D: Immunolocalization was performed to detect evidence of inflammation due to topical application of ETC inhibitors. Both vehicle and ETC inhibitor treated skin was immunostained for phosphor-EGFR ([…]), CD11b (marker of macrophages), and IL6 (Chemokine). Vehicle treated skin from a wounded animal with hyperplastic epidermis was used as a positive control for markers of inflammation. Scale bars indicate 50 micrometers.
To determine whether manipulation of ETC activity could affect HFSC activation, various inhibitors of ETC components were topically applied to mice during a resting phase of the hair cycle. The topical formulation was prepared by suspending the active ingredient in PLO Ultramax Gel (lecithin organogel). At postnatal day 50, the hair follicle is in telogen, a resting phase where the stem cells of the follicle are quiescent until the start of the next hair cycle at day 70-80. Rotenone, Phenformin, and Antimycin A are established inhibitors of […], respectively. Animals were shaved at postnatal day 47 and treated with the indicated compounds or vehicle on the shaved area every 48 hours for the indicated duration. […]

hair follicles = type: in vivo; conditions: backskin of topically treated telogen mice
Procedure: as §1, §2
These findings were also in stark contrast to previous studies showing that transgenic abrogation of the ETC led to hair follicle degeneration.

[2] = tested on: hair follicle stem cells (HFSCs); type: in vivo, mice; conditions: topically treated skin, a week after treatment
lactate [3] = type: in vivo, mice; conditions: topical treatment for 48 hours or 10 days
Procedure: FIG. 2A: Mice were treated topically with the indicated ETC inhibitor for 48 hours. Total epidermis was isolated, lysed and subjected to LDH activity assay. Relative LDH activity is presented as the rate of activity over 30 min in two different animals. FIG. 2B: Mice were treated topically with ETC inhibitor for 48 hours (TOP) or 10 days (BOTTOM). Total epidermis was isolated, and metabolites were extracted and subjected to metabolomics. Heatmap indicates relative levels of metabolites related to glycolysis and the TCA cycle.
To determine the effect on cellular metabolism of ETC inhibition by Rotenone, Phenformin and Antimycin A, two measures of metabolic pathways were performed. First, LDH activity was quantified on cells isolated from the epidermis treated with ETC inhibitors for 48 hours (FIG. 2A). Next, metabolomics was employed on sorted HFSCs with and without treatment for either 48 hours or 10 days.

hair cycle [4] = type: in vivo; conditions: aged mice (at least 17 months), topical every other day for 30 days
Description: (§3) FIGS. 4A and 4B. Treatment with ETC inhibitors can accelerate the hair cycle in aged mice. FIG. 4A: Female mice were shaved at 17 months of age and then treated with vehicle or the indicated ETC inhibitor every other day for up to 30 days. Images taken over time indicate the ETC inhibition promotes a more complete re-growth of hair after shaving in aged mice. Quantification of phenotype emergence from two pairs of animals are presented on the right. Data shown are representative of three independent experiments with 10 mice each.
(§4) As mice age, the hair cycle is known to become protracted such that upon shaving, only portions of the backskin show regrowth of hair within a 1-2 months. Various batches of aged mice (at least 17 months) were treated for 30 days with ETC inhibitors to determine whether this metabolic manipulation could stimulate the hair cycle even in dormant follicles.

lactate [5] = type: in vivo; conditions: aged mice, sorted HFSCs at the end of the hair cycle experiment
Description: as §3, §4

C=C(C)[C@H]1Cc2c(ccc3c2O[C@@H]2COc4cc(OC)c(OC)cc4[C@@H]2C3=O)O1 [Rotenone]
pigmentation in response to treatment (hair cycle [1]): new pigmentation | H and E staining / histological analysis of the hair cycle (hair follicles): advancement of the hair cycle | HFSC activation (Sox9 and Ki-67 immunohistochemistry) [2]: HFSCs became activated | lactate levels and glycolytic intermediates (metabolomics) (lactate [3]): increase in lactate levels as well as several other glycolytic intermediates | hair regrowth across the backskin after shaving (hair cycle [4]): more complete hair regrowth across the entire backskin | lactate pool levels (metabolomics) (lactate [5]): increase in lactate pool levels

Antimycin A
pigmentation in response to treatment (hair cycle [1]): new pigmentation | H and E staining / histological analysis of the hair cycle (hair follicles): advancement of the hair cycle | HFSC activation (Sox9 and Ki-67 immunohistochemistry) [2]: HFSCs became activated | lactate levels and glycolytic intermediates (metabolomics) (lactate [3]): increase in lactate levels as well as several other glycolytic intermediates | hair regrowth across the backskin after shaving (hair cycle [4]): more complete hair regrowth across the entire backskin | lactate pool levels (metabolomics) (lactate [5]): increase in lactate pool levels

[H]/N=C(/N)N/C(=N/[H])NCCc1ccccc1 [Phenformin]
pigmentation and hair growth in response to treatment (hair cycle [1]; topical Phenformin 5 uM every other day for 2-3 weeks, at 10 and 16 days): new pigmentation and then hair growth | H and E staining / histological analysis of the hair cycle (hair follicles): advancement of the hair cycle | HFSC activation (Sox9 and Ki-67 immunohistochemistry) [2]: HFSCs became activated | lactate levels and glycolytic intermediates (metabolomics) (lactate [3]): increase in lactate levels as well as several other glycolytic intermediates | hair regrowth across the backskin after shaving (hair cycle [4]): more complete hair regrowth across the entire backskin | lactate pool levels (metabolomics) (lactate [5]): increase in lactate pool levels

From patent publication US20200253917A1 (priority 2017, published 2020)
